According to patent publication US20110212186A1, “COMPOSITION FOR TREATING AUTOIMMUNE DISORDERS” (priority 2008, published 2011):

Columns and labels:
[1] = system: Bovine articular cartilage explants; assay: Chondroitin sulphate (sGAG) release from bovine cartilage explants, anabolic conditions; format: cell-based; details: for effect on accumulated chondroitin sulphate release day 10-23: Oligomin 200 and 400 μg/ml, glucosamine 400 μg/ml, T-ChOS 50-400 μg/ml, A 200 and 400 μg/ml; for accumulative chondroitin sulphate release day 17-24: combination experiment, IGF-1 100 ng/ml
Experimental: (§1) For cartilage explant experiments, aminosugar concentrations tested were as follows. Oligomin and T-ChOS, 50, 100, 200 and 400 μg/ml in the media. N-acetyl glucosamine (A) and glucosamine (D), 200 and 400 μg/ml in the media. A+D combination were 200 μg/ml each in the media.
(§2) Bovine articular cartilage explants cultures are used as a model for cartilage degenerative diseases that enables experiments in a robust and simple test-model/assay, where the effect of growth factors and drugs on cartilage metabolism can be investigated [ Olsen, A.K., et al., Anabolic and catabolic function of chondrocyte ex vivo is reflected by the metabolic processing of type II collagen. Osteoarthritis and Cartilage, 2007, 15(3): p. 335-342.].
(§3) The knees were opened under semi-sterile conditions in a LAF bench. Cuts of surface articular cartilage were removed in a one-movement-maneuver, removing only the outermost layer. Too deep cuts will contain underlying subchondral bone /chondrosteous material. Uniform explants were harvested from both femur and tibia. Explants from the cartilage situated at the chondyles were avoided. The explants were transferred into a Petri-dish containing PBS+pen/strep (penincillin/streptomycin).
(§4) The explants were individually weighed and transferred into a sterile 96 well plate under semi-sterile conditions in a flow-bench. Prior, the wells were filled with 200 μL PBS+pen/strep, to keep the explants wet after weighing. Then PBS was removed, and medium containing different types and concentration of aminosugars were applied to the wells, 200 μL/well, according to the set-up. Four explant replicates were used for each test. The plates were incubated at 37° C. and 5% CO2 with shaking 50 rpm. The plates were covered in a CO2 permeable plastic bag to limit/avoid contamination from spores. The conditioning medium was replaced every 2nd - 3rd day, and the supernatant was transferred into a new 96 wells plate and stored at −20° C. until end of experiment. Fresh medium different types and concentration of aminosugars were applied to the wells, 200 μL/well, according to the setup every 2nd- 3rd day.
For detection of sulfated glycosaminoglycans (sGAG) that is chondroitin sulphate release, the quantitative dye-binding assay for in vitro analysis of GAG release was used according to the manufacturer's instructions (Wieslab, S).

[2] = system: Bovine articular cartilage explants; assay: Collagen type II formation (PIINP ELISA) in bovine cartilage explants; format: cell-based; details: for effect on PIINP, day 22: Oligomin and T-ChOS 50-400 μg/ml, A and D 200 and 400 μg/ml
Experimental: as §1, §2, §3
as §4, with “The conditioning medium was replaced every 2nd - 3rd day, and the supernatant was transferred into a new 96 wells plate and stored at −20° C. until end of experiment. Fresh medium different types and concentration of aminosugars were applied to the wells, 200 μL/well, according to the setup every 2nd- 3rd day.” left out
Supernatants were measured for type II collagen formation (PIINP), for aggrecanase-mediated aggrecan degradation. […]
Collagen type II formation is measured by a specific ELISA assay based on an antibody that recognizes an epitope on the PIINP molecule outside the exon 2 (PIIANP). […]

YKL-40 = assay: Extracellular YKL-40 release in human cartilage explant media; format: cell-based; details: 400 μg/ml
Experimental: Cartilage explants were obtained from a knee of a person suffering from osteoarthritis. Explants were kept in growth media under anabolic conditions for 25 days. Fresh media was applied every 2-3 days. Aminosugars (Oligomin, T-ChOS, A and D; different concentration) were kept in media from day 0 to day 25. Since YKL-40 is a proposed receptor for the T-ChOS, the extracellular YKL-40 release was analyzed in media at day 4, 11, 15, 20 and 25 in explants treated with 400 μg/ml of T-ChOS, Oligomin and glucosamine (D). […] For the control there was a significant drop in the YKL-40 expression between day 10 and 20. […] Glucosamine had no effect (FIG. 7). […] This relationship disappeared when the T-ChOS group was excluded from the data (no linear regression).

[3] = system: type II collagen arthritis in rats; assay: Type II collagen induced rheumatoid arthritis rat model, oral dosing; format: in vivo
Experimental: Animals used were 10 per group for arthritis-Induced groups, 4/group for non-induced control group), housed 4-5/cage. For the arthritis induction, the animals were anesthetized with Isoflurane and given subcutaneous/intradermal (SC/ID) injections of 300 μl of Freund's Incomplete Adjuvant (Difco, Detroit, Mich.), containing 2 mg/ml bovine type II collagen (Elastin Products, Owensville, Mo.), at the base of the tail and 2 sites on the back on days 0 and 6. Dosing of the various oligomer and/or monomer compositions by oral route (QD at 24 hr intervals) was initiated on day 0 of the study and continued through day 16. Animals were terminated on study day 17. Efficacy evaluation was based on ankle caliper measurements, expressed as area under the curve (AUC), terminal hind paw weights, and histopathologic evaluation of ankles and knees. For statistical analysis various inflammation calculations were performed for the ankle diameter data, Anova and t-tests (parametrical or non-parametrical tests) were applied according to software guidelines ([…]). All animals survived to study termination.

[4] = system: human OA cartilage explant; assay: Collagen type II formation (PIINP) in human OA cartilage explants; format: cell-based; details: different concentrations
Experimental: Collagen type II formation is measured by a specific ELISA assay based on an antibody that recognizes an epitope on the PIINP molecule outside the exon 2 (PIIANP). Therefore the EUSA is not specific for the HA or the IIB form but reacts with both forms. Cartilage explants were obtained from a knee of a person suffering from osteoarthritis. Explants were kept in growth media under anabolic conditions for 25 days. Fresh media was applied every 2-3 days. Aminosugars (Oligomin, T-ChOS, A and D; different concentration) were kept in media from day 0 to day 25.

[5] = system: human OA articular cartilage explants; assay: Cell viability by Alamar Blue, human OA articular cartilage explants; format: cell-based; details: linear regression p<0.05
Experimental: To ensure the specific and non-toxic action of aminosugars, the metabolic activity of chondrocytes were measured by Alamar Blue, which previously has shown to correlate to cell number and cell viability. Cartilage explants were obtained from a knee of a person suffering from osteoarthritis. Explants were kept in growth media under anabolic conditions for 25 days. Fresh media was applied every 2-3 days. Aminosugars (Oligomin, T-ChOS, A and D; different concentration) were kept in media from day 0 to day 25.

[6] = system: Bovine articular cartilage explants; assay: Extracted cartilage protein content, bovine explants; format: cell-based; details: combination experiment
Experimental: The cartilage was extracted to determine the cartilage content of various proteins, in comparison of that secreted to the medium.
Cartilage explants were frozen in liquid nitrogen. The frozen explants were pulverized using Bessman Tissue Pulverizer according to the instructions supplied by the manufacturer. The powder was placed in 14 ml tube using frozen scalpel. Ice-cold Digestive Buffer (50 mM Tris.HCL buffer, pH 7.4 containing 0.1M NaCL and 0.1% Triton X-100) was added and the solution homogenized for 30 sec using Polytron PT-MR 3000 homogenizer (Brinkmann, Littau-Switzerland).The homogenate was then centrifuged at 15,000 rpm for 20 min and the supernatant collected and stored at −80° C. until further analysis.

Compound | effect on accumulated chondroitin sulphate release day 10-23 [1] | effect on PIINP, day 22 [2] | YKL-40 expression in media, late period (day 15-25) (YKL-40) | Summed knee scores, non-significant increase vs disease controls ([3]; 21 mg/kg D alone) [%] | Inhibition of summed ankle histopathology parameters ([3]; T-ChOS 7.1 mg/kg (Group 3), D 21.4 mg/kg (Group 4), T-ChOS 7.1 + D 21.4 mg/kg (Group 5)) [%] | overall benefit in the rat arthritis study (summary) ([3]; T-ChOS 7.1 mg/kg alone, D-glucosamine 21.4 mg/kg alone) | accumulative ankle diameter (day 9-17) ([3]; T-ChOS 7.1 mg/kg, D 21.4 mg/kg, combination T-ChOS 7.1 + D 21.4 mg/kg) | effect on PIINP expression day 18-25 [4] | effect on accumulated chondroitin sulphate release day 10-23 ([1]; listed as Glucosamine) | accumulative chondroitin sulphate release day 17-24 [1] | accumulated PIINP release (day 20 and day 24) ([2]; combination experiment, T-ChOS 50 and 400 μg/ml, T-ChOS 400 μg/ml + glucosamine 200 μg/ml, glucosamine 200 μg/ml, Oligomin 50-400 μg/ml) | Cell-viability at day 25 (Alamar Blue), induction [5] | extracted cartilage protein assay at day 24 [6]
CC(=O)N[C@H]1C(O)O[C@H](CO)[C@@H](O)[C@@H]1O (stereo partly shown) [N-acetyl glucosamine] | no significant effect | no effect |  |  |  |  |  |  |  |  |  |  | 
N[C@H]1C(O)O[C@H](CO)[C@@H](O)[C@@H]1O (stereo partly shown) [glucosamine] | significant reduction | no effect | no effect | 14 | 12 | no beneficial effect | no effect | no effect | same effect | neither T-ChOS nor glucosamine alone did have any significant effect | no effect | least | 
IGF-1: Insulin-like Growth Factor-1, 100 ng/ml, positive anabolic stimulation control |  |  |  |  |  |  |  |  |  | significant Increase |  |  | did not reveal any significant effect
